For assay [1], the target named is T1, Eukaryotic elongation factor 2 kinase (Homo sapiens) (UniProt O00418).
T1 sequence (whole entry): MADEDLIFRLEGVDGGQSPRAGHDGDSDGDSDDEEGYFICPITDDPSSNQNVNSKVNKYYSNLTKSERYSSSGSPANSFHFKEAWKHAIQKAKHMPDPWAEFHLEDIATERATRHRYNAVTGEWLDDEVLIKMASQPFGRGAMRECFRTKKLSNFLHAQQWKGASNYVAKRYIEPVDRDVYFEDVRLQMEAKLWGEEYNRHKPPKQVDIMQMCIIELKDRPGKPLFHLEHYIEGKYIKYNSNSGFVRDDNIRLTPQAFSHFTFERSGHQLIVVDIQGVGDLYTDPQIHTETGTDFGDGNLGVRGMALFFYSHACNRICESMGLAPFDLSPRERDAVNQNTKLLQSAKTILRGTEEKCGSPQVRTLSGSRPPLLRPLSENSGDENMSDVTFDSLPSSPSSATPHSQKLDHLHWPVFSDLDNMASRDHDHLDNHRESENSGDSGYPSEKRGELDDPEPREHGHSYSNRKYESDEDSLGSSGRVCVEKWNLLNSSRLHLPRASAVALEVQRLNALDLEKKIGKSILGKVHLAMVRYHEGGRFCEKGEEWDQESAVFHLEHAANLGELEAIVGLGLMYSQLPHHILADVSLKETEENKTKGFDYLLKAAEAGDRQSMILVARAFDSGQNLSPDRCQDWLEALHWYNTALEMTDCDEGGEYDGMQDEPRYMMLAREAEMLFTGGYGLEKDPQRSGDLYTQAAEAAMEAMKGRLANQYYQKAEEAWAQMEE
Nature of the assay: Percentage EF2K activity remaining in the presence of 0.01uM inhibitor.

Assay [2] deals with Mitogen-activated protein kinase 14 (Homo sapiens, UniProt Q16539). Nature of the assay: Percentage p38alpha activity remaining in the presence of 0.01uM inhibitor.
Sequence of Mitogen-activated protein kinase 14 (Q16539 whole entry): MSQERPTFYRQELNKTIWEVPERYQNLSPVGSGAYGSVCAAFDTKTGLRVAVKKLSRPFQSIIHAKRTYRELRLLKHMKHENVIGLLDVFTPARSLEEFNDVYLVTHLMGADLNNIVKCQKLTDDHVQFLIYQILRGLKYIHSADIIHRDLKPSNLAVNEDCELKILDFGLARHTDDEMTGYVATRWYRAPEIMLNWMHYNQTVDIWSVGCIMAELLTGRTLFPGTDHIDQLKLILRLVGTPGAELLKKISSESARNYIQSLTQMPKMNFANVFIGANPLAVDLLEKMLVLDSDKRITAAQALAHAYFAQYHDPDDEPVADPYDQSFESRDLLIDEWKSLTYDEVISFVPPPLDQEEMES
Assay [3] addresses T2, Mitogen-activated protein kinase 13 (Homo sapiens) (UniProt O15264).
T2 sequence (whole entry): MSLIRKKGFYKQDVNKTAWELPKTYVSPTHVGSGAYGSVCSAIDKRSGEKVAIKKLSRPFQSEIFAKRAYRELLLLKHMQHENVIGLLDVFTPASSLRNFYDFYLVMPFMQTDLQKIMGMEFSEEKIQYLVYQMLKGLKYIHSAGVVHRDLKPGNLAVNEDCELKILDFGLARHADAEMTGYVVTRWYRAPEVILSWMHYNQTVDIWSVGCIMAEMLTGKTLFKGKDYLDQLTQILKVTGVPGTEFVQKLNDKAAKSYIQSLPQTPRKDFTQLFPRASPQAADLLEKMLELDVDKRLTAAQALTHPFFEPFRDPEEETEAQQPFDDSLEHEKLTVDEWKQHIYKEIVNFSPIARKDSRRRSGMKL
In words: Percentage p38delta activity remaining in the presence of 0.01uM inhibitor.

In assay [4] the target is Proto-oncogene tyrosine-protein kinase LCK (Mus musculus) (UniProt P06240). In words: Percentage Lck activity remaining in the presence of 0.01uM inhibitor.
Sequence of Proto-oncogene tyrosine-protein kinase LCK (Mus musculus) (P06240 2-509 limits assumed): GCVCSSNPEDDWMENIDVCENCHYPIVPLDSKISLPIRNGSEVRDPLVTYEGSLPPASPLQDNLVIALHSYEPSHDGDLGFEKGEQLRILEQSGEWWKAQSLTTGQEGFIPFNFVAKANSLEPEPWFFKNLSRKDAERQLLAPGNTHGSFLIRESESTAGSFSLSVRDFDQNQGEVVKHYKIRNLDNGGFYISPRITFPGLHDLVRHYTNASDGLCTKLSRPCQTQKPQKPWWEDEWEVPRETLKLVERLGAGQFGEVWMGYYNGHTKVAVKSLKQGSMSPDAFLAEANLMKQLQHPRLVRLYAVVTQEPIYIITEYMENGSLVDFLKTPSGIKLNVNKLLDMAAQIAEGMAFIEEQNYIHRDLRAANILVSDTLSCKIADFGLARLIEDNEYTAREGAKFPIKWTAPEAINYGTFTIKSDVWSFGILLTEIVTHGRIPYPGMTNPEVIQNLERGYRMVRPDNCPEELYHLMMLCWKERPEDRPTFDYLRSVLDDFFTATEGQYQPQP
Assay [5] addresses Serine/threonine-protein kinase PLK1 (Homo sapiens, UniProt P53350). In words: Percentage PLK1 activity remaining in the presence of 0.01uM inhibitor.
The target in assay [6] is T3, Aurora kinase C (Homo sapiens) (UniProt Q9UQB9).
T3 sequence (whole entry): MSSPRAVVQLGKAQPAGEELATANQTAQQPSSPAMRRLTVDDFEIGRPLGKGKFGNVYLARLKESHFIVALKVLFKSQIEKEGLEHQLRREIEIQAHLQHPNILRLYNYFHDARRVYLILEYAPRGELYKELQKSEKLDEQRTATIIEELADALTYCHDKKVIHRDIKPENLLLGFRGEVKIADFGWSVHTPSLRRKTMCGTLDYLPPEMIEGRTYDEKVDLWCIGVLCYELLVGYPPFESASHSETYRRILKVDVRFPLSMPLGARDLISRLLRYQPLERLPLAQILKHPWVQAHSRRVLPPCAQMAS
Nature of the assay: Percentage Aurora C activity remaining in the presence of 0.01uM inhibitor.

The target in assay [7] is Mitogen-activated protein kinase 11 (Homo sapiens) (UniProt Q15759). Nature of the assay: Percentage p38beta activity remaining in the presence of 0.01uM inhibitor.
Sequence of Mitogen-activated protein kinase 11 (Homo sapiens) (Q15759 whole entry): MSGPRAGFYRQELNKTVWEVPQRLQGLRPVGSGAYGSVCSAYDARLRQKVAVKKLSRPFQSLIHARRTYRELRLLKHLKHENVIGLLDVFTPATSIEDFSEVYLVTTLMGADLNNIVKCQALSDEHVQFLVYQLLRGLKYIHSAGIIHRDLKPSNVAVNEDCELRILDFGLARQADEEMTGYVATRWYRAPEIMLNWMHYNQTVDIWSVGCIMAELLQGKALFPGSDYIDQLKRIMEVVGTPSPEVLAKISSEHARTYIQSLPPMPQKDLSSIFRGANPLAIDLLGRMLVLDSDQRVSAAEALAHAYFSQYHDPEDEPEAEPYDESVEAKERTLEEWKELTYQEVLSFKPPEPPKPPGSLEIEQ
Assay [8] has as its target T4, Serine/threonine-protein kinase Chk1 (Homo sapiens) (UniProt O14757).
T4 sequence (whole entry): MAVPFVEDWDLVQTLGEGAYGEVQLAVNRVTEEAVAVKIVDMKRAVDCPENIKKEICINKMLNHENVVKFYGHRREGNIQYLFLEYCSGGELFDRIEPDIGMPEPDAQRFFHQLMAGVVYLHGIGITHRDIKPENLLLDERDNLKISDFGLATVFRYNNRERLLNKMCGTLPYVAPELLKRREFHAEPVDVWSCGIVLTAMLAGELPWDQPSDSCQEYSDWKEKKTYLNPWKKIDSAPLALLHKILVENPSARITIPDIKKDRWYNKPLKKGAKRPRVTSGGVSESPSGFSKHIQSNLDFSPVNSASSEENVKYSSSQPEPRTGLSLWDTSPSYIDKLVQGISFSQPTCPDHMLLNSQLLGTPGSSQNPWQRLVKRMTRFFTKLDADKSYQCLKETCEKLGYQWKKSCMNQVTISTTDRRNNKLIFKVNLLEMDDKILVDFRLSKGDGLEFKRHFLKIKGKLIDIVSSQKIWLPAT
In words: Percentage CHK1 activity remaining in the presence of 0.01uM inhibitor.

The target in assay [9] is Tyrosine-protein kinase CSK (Homo sapiens, UniProt P41240). In words: Percentage CSK activity remaining in the presence of 0.01uM inhibitor.
Sequence of Tyrosine-protein kinase CSK (P41240 2-450 limits assumed): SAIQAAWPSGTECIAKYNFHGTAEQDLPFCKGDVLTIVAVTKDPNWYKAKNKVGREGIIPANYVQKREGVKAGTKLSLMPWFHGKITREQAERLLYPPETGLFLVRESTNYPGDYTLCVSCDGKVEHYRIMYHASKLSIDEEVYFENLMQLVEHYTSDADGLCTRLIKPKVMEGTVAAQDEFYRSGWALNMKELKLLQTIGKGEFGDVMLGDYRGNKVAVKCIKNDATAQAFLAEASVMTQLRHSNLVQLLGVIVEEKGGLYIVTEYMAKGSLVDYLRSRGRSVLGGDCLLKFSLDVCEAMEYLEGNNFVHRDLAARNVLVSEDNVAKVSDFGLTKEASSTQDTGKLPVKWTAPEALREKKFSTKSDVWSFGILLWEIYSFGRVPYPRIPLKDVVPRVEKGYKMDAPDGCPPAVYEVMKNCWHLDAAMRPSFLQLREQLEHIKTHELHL
Assay [10] deals with T5, Dual specificity tyrosine-phosphorylation-regulated kinase 3 (Homo sapiens) (UniProt O43781).
T5 sequence (whole entry): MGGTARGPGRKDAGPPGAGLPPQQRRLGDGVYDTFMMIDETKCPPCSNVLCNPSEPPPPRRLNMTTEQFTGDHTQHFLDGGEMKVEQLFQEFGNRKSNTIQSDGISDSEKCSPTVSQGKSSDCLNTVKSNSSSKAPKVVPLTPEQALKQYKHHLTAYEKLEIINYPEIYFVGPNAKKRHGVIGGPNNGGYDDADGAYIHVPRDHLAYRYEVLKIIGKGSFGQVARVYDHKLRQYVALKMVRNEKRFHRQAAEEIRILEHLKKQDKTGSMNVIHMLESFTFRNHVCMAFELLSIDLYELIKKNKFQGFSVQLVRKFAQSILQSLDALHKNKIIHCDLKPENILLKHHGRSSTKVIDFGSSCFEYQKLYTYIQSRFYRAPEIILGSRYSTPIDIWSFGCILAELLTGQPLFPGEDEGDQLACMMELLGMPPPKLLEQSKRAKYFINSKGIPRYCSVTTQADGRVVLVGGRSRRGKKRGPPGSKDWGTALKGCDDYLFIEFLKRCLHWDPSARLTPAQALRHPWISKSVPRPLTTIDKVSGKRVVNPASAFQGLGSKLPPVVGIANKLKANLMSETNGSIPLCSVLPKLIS
Nature of the assay: Percentage DYRK3 activity remaining in the presence of 0.01uM inhibitor.

The species entered for assay [11] is Homo sapiens. In words: Percentage PHK activity remaining in the presence of 0.01uM inhibitor.

Sequence of Serine/threonine-protein kinase PLK1 (P53350 whole entry): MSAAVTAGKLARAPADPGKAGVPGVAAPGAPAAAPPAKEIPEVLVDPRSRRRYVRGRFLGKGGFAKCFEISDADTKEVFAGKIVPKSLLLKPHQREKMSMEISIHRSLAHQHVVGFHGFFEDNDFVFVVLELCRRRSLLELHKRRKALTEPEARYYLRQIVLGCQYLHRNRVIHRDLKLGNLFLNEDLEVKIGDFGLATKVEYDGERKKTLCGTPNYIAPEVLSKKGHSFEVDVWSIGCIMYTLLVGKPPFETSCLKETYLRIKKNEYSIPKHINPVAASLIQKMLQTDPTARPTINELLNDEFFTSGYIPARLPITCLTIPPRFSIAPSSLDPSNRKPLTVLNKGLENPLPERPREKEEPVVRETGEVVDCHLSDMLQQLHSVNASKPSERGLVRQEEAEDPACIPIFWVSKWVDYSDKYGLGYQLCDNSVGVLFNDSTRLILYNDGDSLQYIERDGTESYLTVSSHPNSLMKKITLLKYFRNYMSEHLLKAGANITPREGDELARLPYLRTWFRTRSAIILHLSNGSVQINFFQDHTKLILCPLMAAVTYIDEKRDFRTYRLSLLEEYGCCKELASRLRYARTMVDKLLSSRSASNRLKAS

As for `Cc1n[nH]c2ccc(-c3cncc(OC[C@@H](N)Cc4c[nH]c5ccccc45)c3)cc12`, the Activity in [1] was 93%; in [2] it was 131%; in assay [3], 86%; in assay [4], 97%; in assay [5], 89%; in assay [6] it was 100%. Also, the Activity was 114% in assay [7]; 100% in assay [8]; 99% in [9]; 41% in assay [10] (filed as antagonist); 86% in assay [11].

Regarding `O=C(NCCCNc1nc(Nc2cccc(NC(=O)N3CCCC3)c2)ncc1I)c1cccs1`, the Activity in assay [1] is 98%; in assay [2], 86%; in [3], 91%; in [4], 97%; in assay [5], 95%; in [6] (filed as antagonist), 27%. In addition, the Activity in assay [7] was 94%; in assay [8], 84%; in assay [9], 114%; in [10] it was 85%; in [11], 94%.

For the compound `CN[C@@H]1C[C@H]2O[C@@](C)([C@@H]1OC)n1c3ccccc3c3c4c(c5c6ccccc6n2c5c31)C(=O)N[C@H]4O` (stereo in doubt), the Activity was 105% in [1]; 105% in assay [2]; 94% in assay [3]; 50% in assay [4] (filed as antagonist); 76% in [5]; 71% in assay [6]. The Activity in [7] was 105%; in assay [8] (filed as antagonist), 12%; in assay [9], 80%; in [10], 84%; in assay [11] (filed as antagonist), 5%.

(Values after ChEMBL document CHEMBL1150976, “The selectivity of protein kinase inhibitors: a further update” (Biochem J, 2007).)
